Results as given in patent US8097585B2, “Methods of treating inflammation by administration of heme oxygenase-1 and products of heme degradation” (priority 2002, dated 2012).
Structures can show the parent of a compound that is named as a salt.

What was measured:
[1] = system: IL-10; test: Endotoxic shock (LPS) model, serum IL-10; type: in vivo, Sprague-Dawley rats; conditions: biliverdin i.p. […] 17 h and 1 h prior to and 8 h after LPS
Experimental: Treatment Protocol. Endotoxin (lipopolysaccharide/LPS; Sigma; E. coli serotype 0128:B7; 3 mg/kg, i.v.) was administered to male Sprague-Dawley, resulting in an acute non-lethal inflammation. In rats, a sublethal dose of LPS results in a moderate lung inflammation characterized by neutrophil accumulation and protein accumulation in the airspace, both markers of lung inflammation. The pro-inflammatory cytokine TNF-alpha increases very rapidly in the serum, peaking by 60-90 minutes. This is followed by increases in IL-10, a prototypical anti-inflammatory cytokine that peaks 8-12 hr later.
Administration of Biliverdin. Biliverdin (Frontier Scientific: prepared in PBS following solubilization in NaOH) was administered i.p. at […] 17 hours prior to, one hour prior to, and eight hours after LPS administration.
Bronchoalveolar Lavage. A bronchoalveolar lavage (BAL) was performed 24 hours after LPS administration. Serum cytokines were measured using commercially available ELISA kits (R&D Systems Inc.) per the manufacturer's instructions. Total protein was determined via a standard Bradford assay based on a standard curve. […] Total cell count was determined as well as differential analysis of cell type and morphology via Diff-Quik® Fixative (American Scientific Products) staining of a sample of the lavagate.

[2] = system: COX-2; test: Real time RT-PCR of graft muscularis after SITx, COX-2; type: in vivo, LEW rats; conditions: BV treated rats
Experimental: Small Intestinal Transplantation. Orthotopic small intestinal transplantation (SITx) was performed in syngeneic Lewis rats. SITx with caval drainage was performed using a previously described procedure (Murase et al., in Handbook of Animal Models in Transplantation Research, Cramer et al., Eds. CRC Press, Boca Raton, Fla., pp. 203-213 (1994)). […] The graft was perfused via the aortic segment with 5 ml chilled Ringer's lactate solution, and the intestinal lumen was irrigated with 20 ml of cold saline solution containing 0.5% neomycin-sulfate (Sigma, St. Louis, Mo.). […]
SYBR green real time RT-PCR. The effects of administration of biliverdin on transplant-induced pro-inflammatory and anti-inflammatory gene expression were assessed in muscularis extracts by RT-PCR Biliverdin ([…], i.p.) was administered to both the donor and recipient three hours preoperatively. […] Equal aliquots (5 μg) of total RNA from each sample were quantified by spectrophotometry (wavelength […]) and aliquoted at a concentration of 40 ng/μl. Peak mRNA expression was quantified in duplicate by SYBR Green two-step, real-time RT-PCR. […] Real-time PCR data were plotted as the ΔRn fluorescence signal versus the cycle number. […] Quantification of mRNA expression was normalized to GAPDH and calculated relative to control using the comparative CT method (Schmittgen et al., J. Biochem. Biophys. Methods 46(1-2):69-8, 2000). […]

[3] = system: HO-1; test: HO-1 protein expression in heart and spleen after CoPPIX (Western blot); type: in vivo, DBA/2 mice; conditions: CoPPIX 5 mg/kg i.p.
Experimental: Protein extraction and Western blot. DBA/2 mice were injected i.p. with CoPPIX at a dose of 5 mg/kg. Non-treated animals served as naïve controls. One, 2, 4, and 7 days following treatment, the heart and the spleen were excised from the animals, and samples were snap-frozen in liquid nitrogen. Protein extracts were prepared from the obtained tissues, electrophoresed under denaturing conditions (10% polyacrylamide gels) and transferred onto polyvinyldifluoridine membranes (Immobilon™ P, Millipore, Bedford, Mass.). HO-1 was detected using the rabbit anti-human HO-1 polyclonal antibody (Stress Gen Biotechnologies Corp., Victoria, Canada); α-actin was detected using the goat anti-mouse α-actin mAb (1A4, Sigma-Aldrich Corporation). Primary antibodies were detected using horseradish peroxidase conjugated donkey anti-rabbit or goat anti-mouse IgG secondary antibodies (Pierce, Rockford, Ill.). Protein was visualized using the Enhanced Chemi Luminescence (ECL™) Assay kit (Amersham Life Science Inc., Arlington Heights, Ill.), according to the manufacturer's instructions, and stored in the form of photo radiographs (Biomax™ MS, Eastman Kodak, Rochester, N.Y.). The amount of HO-1 expression was normalized with α-actin expression, and was quantified by using the ImageQuant™ software (Molecular Dynamics, Sunny Vale, Calif.).

Row | SMILES | IL-10 level [1] | reduction of mean relative COX-2 mRNA expression [2] | HO-1 protein expression in the heart and spleen [3] | time of maximal HO-1 expression after injection [3]
1 | C=CC1=C(C)/C(=C/C2=NC(=C\c3[nH]c(/C=C4\NC(=O)C(C)=C4C=C)c(C)c3CCC(=O)O)/C(CCC(=O)O)=C2C)NC1=O [biliverdin, biliverdin dihydrochloride] | augmentation | approximately 50% |  | 
2 | C=CC1=C(C)c2cc3[n-]c(cc4nc(cc5[n-]c(cc1n2)c(C)c5CCC(=O)[O-])C(CCC(=O)[O-])=C4C)c(C)c3C=C.[Co+2].[H+].[H+] [CoPP, Cobalt protoporphyrin] |  |  | up-regulated | one
